Test results from US20220062240A1, “METHODS OF TREATING CANCER USING A CLK INHIBITOR” (BioSplice Therapeutics, Inc., priority 2018, published 2022).
Read-outs that look alike come from different tables or passages of the source.

How the values were obtained:
CLK2 = target: T1, CLK2 (Homo sapiens, UniProt P49760); test: CLK2 kinase activity assay (Z-lyte, Ser/Thr 6 peptide); assay type: biochemical; details: recombinant CLK2 kinase, ATP 60 μM; read-out: EC50
T1 construct: purchased Thermo Fisher (Life Technologies), Z'-LYTE Kinase Assay Kits
T1 sequence (P49760 whole entry): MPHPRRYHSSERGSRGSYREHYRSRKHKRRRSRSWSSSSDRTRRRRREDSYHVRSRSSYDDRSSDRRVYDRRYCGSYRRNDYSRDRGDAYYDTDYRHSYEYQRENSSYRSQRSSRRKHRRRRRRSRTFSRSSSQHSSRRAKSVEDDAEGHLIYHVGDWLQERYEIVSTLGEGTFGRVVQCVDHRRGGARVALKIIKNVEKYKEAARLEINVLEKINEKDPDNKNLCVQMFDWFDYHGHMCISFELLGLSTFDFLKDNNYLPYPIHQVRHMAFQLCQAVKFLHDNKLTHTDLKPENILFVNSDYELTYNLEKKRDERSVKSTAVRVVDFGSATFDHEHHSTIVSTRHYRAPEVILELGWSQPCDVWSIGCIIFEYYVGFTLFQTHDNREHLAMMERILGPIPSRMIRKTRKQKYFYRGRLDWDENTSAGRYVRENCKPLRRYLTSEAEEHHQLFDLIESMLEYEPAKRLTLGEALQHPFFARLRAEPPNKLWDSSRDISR
Method: All reactions were performed in duplicate.

BT-549 = test: CellTiter-Glo Viability Assay, breast cancer; assay type: cell-based; details: Homo sapiens, 96 h; BT-549, breast cancer, four days; read-out: EC50
CAMA1 = test: CellTiter-Glo Viability Assay, breast cancer; assay type: cell-based; details: Homo sapiens, CAMA-1, 96 h; CAMA1, breast cancer, four days; read-out: EC50
DU4475 = test: CellTiter-Glo Viability Assay, breast cancer; assay type: cell-based; details: Homo sapiens, DU-4475, 96 h; DU4475, breast cancer, four days; read-out: EC50
HCC1599 = test: CellTiter-Glo Viability Assay, breast cancer; assay type: cell-based; details: Homo sapiens, 96 h; HCC1599, breast cancer, four days; read-out: EC50
MCF7 = test: CellTiter-Glo Viability Assay, breast cancer; assay type: cell-based; details: Homo sapiens, 96 h; MCF7, breast cancer, four days; read-out: EC50
MDA-MB-231-Luc = test: CellTiter-Glo Viability Assay, breast cancer; assay type: cell-based; details: Homo sapiens, 96 h; MDA-MB-231-Luc, breast cancer, four days; read-out: EC50
T47D = test: CellTiter-Glo Viability Assay, breast cancer; assay type: cell-based; details: Homo sapiens, 96 h, breast cancer, four days, read-out: EC50
ZR-75-1 = test: CellTiter-Glo Viability Assay, breast cancer; assay type: cell-based; details: Homo sapiens, 96 h; ZR-75-1, breast cancer, four days; read-out: EC50
all 50 cell lines = test: CellTiter-Glo Viability Assay, average across all cell lines; assay type: cell-based; details: Homo sapiens; across all 50 cell lines; read-out: average EC50 for inhibition of cancer cell proliferation
Outline: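 Cancer cell lines of several tumour types plated at 300-3,000 cells/well and exposed to compound in duplicate for four days at 37° C, 5% CO2, with DMSO-treated controls. Viability read by CellTiter-Glo luminescence (ATP content); EC50 derived from dose-response curves.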

[1] = test system: colorectal cancer (6 cell lines); test: CellTiter-Glo Viability Assay, colorectal cancer; assay type: cell-based; details: Homo sapiens, inhibition of cancer cell proliferation
[2] = test system: haematopoietic & lymphoid tumors (13 cell lines); test: CellTiter-Glo Viability Assay, haematopoietic & lymphoid tumors; assay type: cell-based; details: Homo sapiens, inhibition of cancer cell proliferation
[3] = test system: liver cancer (3 cell lines); test: CellTiter-Glo Viability Assay, liver cancer; assay type: cell-based; details: Homo sapiens, inhibition of cancer cell proliferation
[4] = test system: lung cancer (4 cell lines); test: CellTiter-Glo Viability Assay, lung cancer; assay type: cell-based; details: Homo sapiens, inhibition of cancer cell proliferation
[5] = test system: ovarian cancer (4 cell lines); test: CellTiter-Glo Viability Assay, ovarian cancer; assay type: cell-based; details: Homo sapiens, inhibition of cancer cell proliferation
[6] = test system: pancreatic cancer (8 cell lines); test: CellTiter-Glo Viability Assay, pancreatic cancer; assay type: cell-based; details: Homo sapiens, inhibition of cancer cell proliferation
[7] = test system: prostate cancer (5 cell lines); test: CellTiter-Glo Viability Assay, prostate cancer; assay type: cell-based; details: Homo sapiens
CLK3 = CLK3 (Homo sapiens, UniProt P49761); test: CLK3 kinase activity assay (Z-lyte, Ser/Thr 18 peptide)
Sequence of CLK3 (P49761 whole entry): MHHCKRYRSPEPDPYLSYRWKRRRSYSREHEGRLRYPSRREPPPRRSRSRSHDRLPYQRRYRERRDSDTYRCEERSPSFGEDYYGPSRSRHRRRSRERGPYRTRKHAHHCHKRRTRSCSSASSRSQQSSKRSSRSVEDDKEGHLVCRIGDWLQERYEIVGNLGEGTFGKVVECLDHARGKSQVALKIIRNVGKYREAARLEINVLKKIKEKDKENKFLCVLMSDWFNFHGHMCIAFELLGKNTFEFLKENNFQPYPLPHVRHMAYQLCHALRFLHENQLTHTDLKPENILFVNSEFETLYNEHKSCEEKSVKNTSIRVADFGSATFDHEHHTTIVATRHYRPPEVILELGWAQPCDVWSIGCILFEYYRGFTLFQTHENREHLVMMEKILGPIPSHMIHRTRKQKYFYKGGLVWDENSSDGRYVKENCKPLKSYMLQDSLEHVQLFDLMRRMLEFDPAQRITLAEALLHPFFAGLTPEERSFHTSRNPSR

Structure (SMILES): CN1CCC(Oc2ccc(NC(=O)c3n[nH]c4cc(F)c(-c5cnn(C)c5)cc34)cc2)CC1 [Compound 61]
- EC50 (CLK2): 0.6 nM
- EC50 (BT-549): 786 nM
- EC50 (CAMA1): 3850 nM
- EC50 (DU4475): 411 nM
- EC50 (HCC1599): 367 nM
- EC50 (MCF7): 3390 nM
- EC50 (MDA-MB-231-Luc): 2040 nM
- EC50 (T47D): 3550 nM
- EC50 (ZR-75-1): 1840 nM
- EC50 (all 50 cell lines): 1220 nM
- EC50 ([1]; HCT-116, HCT116 cell line, read-out: Colorectal cancer, EC50 (μM) HCT116): 0.611 µM
- EC50 ([1]; HT-29, HT29 cell line, read-out: Colorectal cancer, EC50 (μM) HT29): 1.7 µM
- EC50 ([1]; SW-620, SW620 cell line, read-out: Colorectal cancer, EC50 (μM) SW620): 0.418 µM
- EC50 ([1]; DLD-1 cell line, read-out: Colorectal cancer, EC50 (μM) DLD-1): 0.644 µM
- EC50 ([1]; SW48 cell line, read-out: Colorectal cancer, EC50 (μM) SW48): 0.151 µM
- EC50 ([1]; SW480 cell line, read-out: Colorectal cancer, EC50 (μM) SW480): 0.769 µM
- EC50 ([2]; DND41, DND-41 cell line, read-out: Haematopoietic & Lymphoid tumors, EC50 (μM) DND-41): 0.798 µM
- EC50 ([2]; MV4-11, MV-4-11 cell line, read-out: Haematopoietic & Lymphoid tumors, EC50 (μM) MV-4-11): 0.057 µM
- EC50 ([2]; Rec1, REC-1 cell line, read-out: Haematopoietic & Lymphoid tumors, EC50 (μM) REC-1): 0.261 µM
- EC50 ([2]; SU-DHL-4, SUDHL4 cell line, read-out: Haematopoietic & Lymphoid tumors, EC50 (μM) SUDHL4): 0.779 µM
- EC50 ([2]; HL-60 cell line, read-out: Haematopoietic & Lymphoid tumors, EC50 (μM) HL-60): 1.64 µM
- EC50 ([2]; JM1 cell line, read-out: Haematopoietic & Lymphoid tumors, EC50 (μM) JM1): 0.237 µM
- EC50 ([2]; JURKAT, Clone E6-1 cell line, read-out: Haematopoietic & Lymphoid tumors, EC50 (μM) JURKAT, Clone E6-1): 0.88 µM
- EC50 ([2]; JeKo-1 cell line, read-out: Haematopoietic & Lymphoid tumors, EC50 (μM) JeKo-1): 0.201 µM
- EC50 ([2]; KASUMI-1 cell line, read-out: Haematopoietic & Lymphoid tumors, EC50 (μM) KASUMI-1): 0.273 µM
- EC50 ([2]; Loucy cell line, read-out: Haematopoietic & Lymphoid tumors, EC50 (μM) Loucy): 0.581 µM
- EC50 ([2]; MOLT-4 cell line, read-out: Haematopoietic & Lymphoid tumors, EC50 (μM) MOLT-4): 0.999 µM
- EC50 ([2]; TF-1 cell line, read-out: Haematopoietic & Lymphoid tumors, EC50 (μM) TF-1): 1.31 µM
- EC50 ([2]; TOLEDO cell line, read-out: Haematopoietic & Lymphoid tumors, EC50 (μM) TOLEDO): 0.182 µM
- EC50 ([3]; SNU-398, SNU398 cell line, read-out: Liver cancer, EC50 SNU398): 450 nM
- EC50 ([3]; HEPG2 cell line, read-out: Liver cancer, EC50 HEPG2): 1460 nM
- EC50 ([3]; PLC/PRF/5 cell line, read-out: Liver cancer, EC50 PLC/PRF/5): 3160 nM
- EC50 ([4]; A-427, A427 cell line, read-out: Lung cancer, EC50 (μM) A427): 0.619 µM
- EC50 ([4]; HCC78, HCC-78 cell line, read-out: Lung cancer, EC50 (μM) HCC-78): 3.02 µM
- EC50 ([4]; NCI-H460 cell line, read-out: Lung cancer, EC50 (μM) NCI-H460): 0.856 µM
- EC50 ([4]; NCI-H522 cell line, read-out: Lung cancer, EC50 (μM) NCI-H522): 0.57 µM
- EC50 ([5]; PA-1, PA1 cell line, read-out: Ovarian cancer, EC50 (μM) PA1): 0.819 µM
- EC50 ([5]; TOV112D, TOV-112D cell line, read-out: Ovarian cancer, EC50 (μM) TOV-112D): 0.533 µM
- EC50 ([5]; OV-90 cell line, read-out: Ovarian cancer, EC50 (μM) OV-90): 1.98 µM
- EC50 ([5]; OVCAR-3 cell line, read-out: Ovarian cancer, EC50 (μM) OVCAR-3): 0.568 µM
- EC50 ([6]; BXPC-3, BxPC3 cell line, read-out: Pancreatic cancer, EC50 BxPC3): 2030 nM
- EC50 ([6]; CAPAN-1, Capan1 cell line, read-out: Pancreatic cancer, EC50 Capan1): 2090 nM
- EC50 ([6]; Capan-2, Capan2 cell line, read-out: Pancreatic cancer, EC50 Capan2): 2720 nM
- EC50 ([6]; MIA PaCa-2 cell line, read-out: Pancreatic cancer, EC50 MIA PaCa-2): 438 nM
- EC50 ([6]; PANC 05.04 cell line, read-out: Pancreatic cancer, EC50 PANC 05.04): 2260 nM
- EC50 ([6]; PANC-1 cell line, read-out: Pancreatic cancer, EC50 PANC-1): 2160 nM
- EC50 ([6]; UPAFII cell line, read-out: Pancreatic cancer, EC50 UPAFII): 1030 nM
- EC50 ([7]; DU-145, read-out: Prostate cancer EC50 Du-145): 1260 nM
- EC50 ([7]; PC-3, PC3 cell line, inhibition of cancer cell proliferation, read-out: Prostate cancer EC50 PC3): 1230 nM
- EC50 ([7]; 22Rv1 cell line, inhibition of cancer cell proliferation, read-out: Prostate cancer EC50 22Rv1): 672 nM
- EC50 ([7]; LNCap clone FGC cell line, inhibition of cancer cell proliferation, read-out: Prostate cancer EC50 LNCap clone FGC): 779 nM
- EC50 ([7]; VCaP (Sigma) cell line, inhibition of cancer cell proliferation, read-out: Prostate cancer EC50 VCaP (Sigma)): 1480 nM
- EC50 (CLK3): 49.1 nM
